Assays:
[1] = molecular target: DDB1ΔB-CRBN (Homo sapiens (Human), UniProt Q96SW2); test: Atto565-Lenalidomide displacement assay (fluorescence polarization, CRBN binding); conditions: for IC50: 10 nM Atto565-Lenalidomide, 100 nM DDB1ΔB-CRBN, n=2; for Ki: calculated from IC50 with probe Kd of 40 nM, competitive model
Procedure: Various inventive compounds were analyzed for cereblon binding. […] Compound titrations were incubated for 60 min at room temperature. The change in fluorescence polarization was monitored using a PHERAstar® FS microplate reader (BMG Labtech) for 1 h in 120s cycles.

[2] = molecular target: CRBN (Homo sapiens (Human), UniProt Q96SW2); test: Cellular CRBN dBET6 displacement assay (BRD4BD2-GFP/mCherry reporter cells); type: cell-based; conditions: Flip-In 293 cells stably expressing BRD4BD2-GFP, 100 nM dBET6, 5 hours; read-out: Cellular CRBN-BRD4 dBET6 displacement EC50
Chain of CRBN (Q96SW2 whole entry): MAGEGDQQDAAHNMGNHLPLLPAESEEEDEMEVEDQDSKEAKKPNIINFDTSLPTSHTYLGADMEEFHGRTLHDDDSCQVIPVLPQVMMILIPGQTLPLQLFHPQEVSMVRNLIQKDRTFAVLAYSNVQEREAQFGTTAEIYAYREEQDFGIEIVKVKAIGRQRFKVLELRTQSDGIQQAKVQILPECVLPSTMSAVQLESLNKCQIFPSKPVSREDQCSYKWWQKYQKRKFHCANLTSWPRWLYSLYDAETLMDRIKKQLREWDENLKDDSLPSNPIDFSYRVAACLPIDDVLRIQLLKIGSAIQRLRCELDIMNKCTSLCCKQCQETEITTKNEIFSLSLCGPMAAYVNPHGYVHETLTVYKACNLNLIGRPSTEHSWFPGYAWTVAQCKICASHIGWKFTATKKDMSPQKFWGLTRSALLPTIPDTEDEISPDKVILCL
Procedure: BRD4BD2 were subcloned into mammalian pcDNA5/FRT Vector (Ampicillin and Hygromycin B resistant) modified to contain MCS-eGFP-P2A-mCherry. […] Following a 2-3 passage cycle, FACS (FACSAria™ II, BD) was used to enrich for cells expressing eGFP and mCherry.
Signal from minimal 3000 events per well was acquired and the eGFP and mCherry florescence monitored. Data was analyzed using FlowJo® (FlowJo®, LCC). […] The eGFP protein abundance relative to mCherry was then quantified as a ten-fold amplified ratio for each individual cell using the formula: 10×eGFP/mCherry. The median of the ratio was then calculated per set, normalized to the median of the DMSO ratio.
This assay provided a readout of cellular CRBN binding impacted by the permeability of the molecule tested.

Chain of DDB1ΔB-CRBN (Q96SW2 whole entry, stated change not applied): as the sequence (Q96SW2 whole entry) above

Row | Compound | IC50 [1] [µM] | Ki [1] [µM] | EC50 [2] [µM]
1 | O=C1CCC(N2Cc3c(NC(=O)CNc4ccnc(Nc5ccc6c(c5)CCC6)n4)cccc3C2=O)C(=O)N1 (centres unmarked) [Compound 2, 2-((2-((2,3-dihydro-1H-inden-5-yl)amino)pyrimidin-4-yl)amino)-N-(2-(2,6-dioxopiperidin-3-yl)-1-oxoisoindolin-4-yl)acetamide] | 47.5 | 13.6 | 47.9
2 | O=C1CCC(N2Cc3c(NC(=O)CNc4ccnc(N5CCC[C@@H]5CO)n4)cccc3C2=O)C(=O)N1 (stereo partly drawn) [Compound 14, N-(2-(2,6-dioxopiperidin-3-yl)-1-oxoisoindolin-4-yl)-2-((2-((R)-2-(hydroxymethyl)pyrrolidin-1-yl)pyrimidin-4-yl)amino)acetamide] | 1.6 | 0.44 | –
3 | COc1ccccc1Nc1nccc(NCC(=O)Nc2cccc3c2CN(C2CCC(=O)NC2=O)C3=O)n1 (centres unmarked) [Compound 15, N-(2-(2,6-dioxopiperidin-3-yl)-1-oxoisoindolin-4-yl)-2-((2-((2-methoxyphenyl)amino)pyrimidin-4-yl)amino)acetamide] | 15.2 | 4.3 | –
4 | O=C1CCC(N2Cc3c(NC(=O)CNc4ccnc(N5CCN(c6cccc(C(F)(F)F)c6)CC5)n4)cccc3C2=O)C(=O)N1 (centres unmarked) [Compound 16, N-(2-(2,6-dioxopiperidin-3-yl)-1-oxoisoindolin-4-yl)-2-((2-(4-(3-(trifluoromethyl)phenyl)piperazin-1-yl)pyrimidin-4-yl)amino)acetamide] | 0.517 | 0.13 | –
5 | CN(c1ccccc1)c1nccc(NCC(=O)Nc2cccc3c2CN(C2CCC(=O)NC2=O)C3=O)n1 (centres unmarked) [Compound 17, N-(2-(2,6-dioxopiperidin-3-yl)-1-oxoisoindolin-4-yl)-2-((2-(methyl(phenyl)amino)pyrimidin-4-yl)amino)acetamide] | 3.44 | 0.97 | –
